# Like-named read-outs stand apart in the source and are kept apart here.
# How the values were obtained:
# MCF-7 = assay: MTT antiproliferative assay, MCF-7; assay type: cell-based, human; conditions: Homo sapiens; for inhibition at 10 µM: MCF7, 10 µM; for inhibition at 10 µM / inhibition at 30 µM: 72 h; for inhibition at 30 µM: MCF7, 30 µM; for IC50: MCF7, 72 h, read-out: calculated IC50 MCF-7
# Protocol: (§1) We evaluated the cytotoxic activity of the newly synthesised arylated compounds 13–17 by the MTT assay[37] on a panel of human adherent cancer cell lines. The panel included breast (MCF-7 and MDA MB-231) and cervical (HeLa, SiHa and C33A) cancer cell lines differing in receptorial or HPV status. Tumour selectivity was determined on the NIH/3T3 mouse fibroblast cell line.
# (§2) Briefly, the panels of breast and cervical cancerous cell lines, differing by their receptorial and HPV status were used, precisely MCF-7 (ER, PR and HER2 positive) and MDA-MB-231 (TNBC) breast carcinoma and HeLa (HPV18+), SiHa (HPV16+), C33A (HPV-) cervical carcinoma cells. Non-cancerous NIH/3T3 mouse fibroblast cell line was used for selectivity study. MCF-7, MDA-MB-231, Hela and NIH/3T3 cell lines were purchased from ECACC (European Collection of Cell Cultures, Salisbury, UK), while SiHa and C33A from ATCC (American Tissue Culture Collection, LGC Standards GmbH, Wesel, Germany). Cells were maintained in Eagle's Minimum Essential Medium (EMEM, Capricorn Scientific GmbH, Ebsdorfergrund, Germany) supplemented with 10% heat-inactivated fetal bovine serum (FBS), 1% non-essential amino acids (NEAA), and 1% antibiotic-antimycotic mixture (penicillin–streptomycin). The cells were maintained at 37 °C in a humidified atmosphere containing 5% CO2.
# (§3) For measurements cells were seeded for 96-well plates at a density of 5 000/well, except for C33A, which was seeded in 10 000cells for each well. After overnight standing cells were treated with 10 and 30 µM solutions for screening and increasing concentrations (0.1-30.0 µM) of the test compounds were used for concentration-response curves. After incubation for 72 hours under cell culturing condition 5 mg/ml MTT (3-(4,5-[…])-2,5-diphenyl-2H-tetrazolium bromide) solution was added for another 4 h. The precipitated formazan crystals were solubilized in DMSO and the absorbance was measured at 545 nm with a microplate reader (BMG Labtech, Ortenberg, Germany). Wells with untreated cells were utilized as control, and inhibition % were calculated by GraphPad Prism v 9.0 software (GraphPad Software, San Diego, CA, USA). If the growth-inhibition exceeded 70% at 30 µM concentration during the screening concentration-response curves were fitted and IC50 values were calculated by GraphPad Prism v 9.0. The experiments were performed with five parallel wells for each experimental condition and repeated at least twice.
# SiHa = assay: MTT antiproliferative assay, SiHa; assay type: cell-based, human; conditions: Homo sapiens, SiHa, 72 h; for IC50: read-out: calculated IC50 SiHa
# Protocol: as §1, §2, §3
# [1] = system: human adherent cancer cell lines (HeLa, SiHa, C33A, MCF-7 and MDA-MB-231); assay: MTT assay, whole panel of cell lines; assay type: cell-based; conditions: for IC50: Homo sapiens, MTT, 72 h, range across cell lines, read-out: IC50 range over the investigated cell lines
# Protocol: as §1, §2, §3
# HeLa = assay: MTT antiproliferative assay, HeLa; assay type: cell-based, human; conditions: Homo sapiens, HeLa, 72 h; for IC50: read-out: calculated IC50 HeLa
# Protocol: as §1, §2, §3
# [2] = system: NIH/3T3 mouse fibroblast cell line; assay: MTT assay, tumour selectivity on non-cancerous fibroblasts; assay type: cell-based; conditions: Mus musculus; for inhibition at 10 µM: NIH3T3, 10 µM; for inhibition at 10 µM / inhibition at 30 µM: 72 h; for inhibition at 30 µM: NIH3T3, 30 µM; for IC50: NIH3T3, 72 h, read-out: calculated IC50 NIH/3T3
# Protocol: as §1, §2, §3
# 17β-HSD1 = target: T1, 17β-HSD1 (Homo sapiens, UniProt P14061); assay: 17β-HSD1 enzymatic assay (E1 to E2, LC-MS/MS); assay type: biochemical
# T1 sequence (P14061 1-328): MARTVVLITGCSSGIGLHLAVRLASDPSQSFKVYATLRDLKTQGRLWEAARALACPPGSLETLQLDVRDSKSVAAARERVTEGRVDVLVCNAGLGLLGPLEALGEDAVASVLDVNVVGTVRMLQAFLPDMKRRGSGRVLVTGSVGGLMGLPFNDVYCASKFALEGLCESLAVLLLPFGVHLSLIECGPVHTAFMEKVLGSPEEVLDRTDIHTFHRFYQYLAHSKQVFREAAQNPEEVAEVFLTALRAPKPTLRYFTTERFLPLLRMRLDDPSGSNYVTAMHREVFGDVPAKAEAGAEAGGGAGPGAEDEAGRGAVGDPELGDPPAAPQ
# Protocol: The bacterial homogenate of E. coli overexpressing HSD17B1 was previously prepared as described in references ^S2,S3, and stored in aliquots at -80 °C. Before conducting experiments, aliquots were quickly thawed and diluted twice with 100 mM sodium phosphate buffer (pH 6.5; #14457, #1411007, Kemika), then kept on ice. The enzymatic assay was performed as described in ^S3. Briefly, a 1 mL enzymatic reaction mixture was prepared in 2 mL microcentrifuge tubes with the following components: 10 µL of the test inhibitor dissolved in dimethyl sulfoxide (DMSO; #276855, Sigma Aldrich) or 10 µL of DMSO for control samples, 5 µL of 14 µM substrate estrone (E1; CAS 53-16-7; #E2300-000, Steraloids), 10 µL of 10 mM NADPH (#AE14, Carl Roth) prepared in 100 mM sodium phosphate buffer, and 965 µL of 100 mM sodium phosphate buffer (pH 6.5). The reaction mixture was mixed thoroughly before adding 10 µL of bacterial homogenate. Immediately after addition, the tubes were transferred to an Eppendorf thermoshaker (#5382000031, Eppendorf) and incubated at 37 °C for 10 minutes. To stop the reaction, 60 µL of 1.26 M ascorbic acid (#A92902, Sigma Aldrich) in methanol (#34966, Honeywell/Riedel-de Haen) /acetic acid (#1.00063, Merck) (99:1, v/v) was added. The samples were then immediately processed using solid-phase extraction (SPE). The assay was repeated in three independent experiments, with each experiment performed in technical duplicate.
# The preparation of samples for liquid chromatography-tandem mass spectrometry (LC-MS/MS) involved SPE. Stock solutions of E1 and 17β-estradiol (E2; CAS: 50-28-2; #142406, Steraloids) were prepared gravimetrically and dissolved in methanol (#34966, Honeywell/Riedel-de Haen). A working calibrator solution containing both steroids was then prepared by mixing appropriate volumes of the stock solutions in methanol to achieve a final concentration of 1 µg/mL for each steroid. Eight-point calibration curves (excluding zero and blank) were prepared in 100 mM sodium phosphate buffer (pH 6.5). For each 1 mL reaction mixture or calibrator, 10 µL of 100 ng/mL internal standard solution containing [2,3,4-13C3]-17β-estradiol (#719552, Sigma Aldrich) was added. Samples were mixed thoroughly and incubated at room temperature for 15 minutes.
# SPE was performed using Strata X 33 µm polymeric reversed-phase columns (30 mg/mL tubes; #8B-S100-TAK, Phenomenex). The procedure involved the following steps: column conditioning with 1 mL of methanol, column equilibration with 1 mL of H₂O (#1.15333, Supelco), sample loading (1 mL sample or calibrator), column washing with 1 mL of H₂O, column drying under high vacuum for 10 minutes, and finally elution with 1 mL of methanol directly into HPLC glass vials (#702713, Macherey-Nagel GmbH/Co). The eluted samples were stored at -20 °C until LC-MS/MS analysis.
# C33A = assay: MTT antiproliferative assay, C33A; assay type: cell-based, human; conditions: Homo sapiens, C-33-A, 72 h; for IC50: read-out: calculated IC50 C33A
# Protocol: as §1, §2, §3
# MDA-MB-231 [3] = assay: MTT antiproliferative assay, MDA-MB-231; assay type: cell-based, human; conditions: Homo sapiens; for inhibition at 10 µM: MDA-MB-231, 10 µM; for inhibition at 10 µM / inhibition at 30 µM: 72 h; for inhibition at 30 µM: MDA-MB-231, 30 µM; for IC50: MDA-MB-231, 72 h, read-out: calculated IC50 MDA-MB-231
# Protocol: as §1, §2, §3
# HeLa cells [4] = assay: Cell cycle analysis by flow cytometry (propidium iodide); assay type: cell-based, human; conditions: 24 and 48 h
# Protocol: To determine the cellular DNA content of the cells, flow cytometry analysis after propidium-iodide labeling was performed. Propidium iodide is a nuclear dye intercalating between the base pairs in DNA without sequence preference. Therefore, the cells' total emitted fluorescence will depend on each cell's DNA content, which varies depending on the cell cycle phase.
# Hela cells were seeded into 12-well plates at 200,000 cells/well density for the cell cycle analysis. Cells were incubated overnight prior to the treatment, then treated with 1, 2, and 3 µM solutions of 14c compound for 24 h and 48 hours. After incubation, cells were washed twice with phosphate-buffered saline (PBS) and harvested. After centrifugation at 1200 rpm, for 7 minutes, cells were washed again with 300 µl PBS and fixed in 500 µl cold 70% ethanol. Samples were stained in 300 µl dye solution containing RNaseA, TritonX-100, sodium citrate, and 0.1 mg/ml-PI in distilled water. The suspension was incubated for 20 minutes in the dark at room temperature. Cells were measured by CytoFLEX flow cytometer, recorded by CytExpert Software (Beckman Coulter INC, Brea, CA, USA). In each analysis, 20,000 events were recorded inside the FSC/SSC gate, and the percentages of the cells in the different phases of the cell cycle were determined and analyzed using ModFit LT 6.0 software.
# HeLa cells [5] = assay: Mitochondrial membrane potential assay (JC-10, flow cytometry); assay type: cell-based, human; conditions: 24 h
# Text: JC-10 dye was used to investigate the changes in the mitochondrial membrane potential. JC-10 is a cationic dye that can pass through the cell membrane and accumulate in healthy mitochondria by forming reversible red-fluorescent aggregates. In addition, changes in membrane potential result in the failure to retain the aggregates. Therefore, the dye returns to the cytosol in green monomeric form. Mitochondrial changes may be detected by measuring the green and red fluorescent signals together.
# Hela cells were seeded into 12-well plates at 200,000 cells/well density and incubated overnight. Cells were treated with 1 and 2 µM of 17c for 24 h and 10 µM of CCCP as reference compound ^S1. After the incubation, cells were collected and centrifuged at 1100 rpm for 6 minutes, then washed with PBS. After centrifugation, 300 µl dye solution (20 µM JC-10 final concentration) was added to the pellet. After 5 min incubation, cells were measured by CytoFLEX flow cytometer, recorded by CytExpert Software (Beckman Coulter INC, Brea, CA, USA) reading of red and green fluorescence on 525 and 585 channels.
# cancer cell lines = conditions: cited from earlier work
# MDA-MB-231 [6] = system: MDA-MB-231; design: method as in PMID 21912610, PMID 28436164; conditions: cited from earlier work
SMILES,inhibition at 10 µM (MCF-7) [%],inhibition at 30 µM (MCF-7) [%],IC50 (MCF-7) [nM],inhibition at 10 µM (SiHa) [%],inhibition at 30 µM (SiHa) [%],IC50 (SiHa) [nM],IC50 [1] [nM],inhibition at 10 µM (HeLa) [%],inhibition at 30 µM (HeLa) [%],IC50 (HeLa) [nM],inhibition at 10 µM [2] [%],inhibition at 30 µM [2] [%],IC50 [2] [nM],inhibition at 10 µM (C33A) [%],inhibition at 30 µM (C33A) [%],IC50 (C33A) [nM],inhibition at 10 µM (MDA-MB-231 [3]) [%],inhibition at 30 µM (MDA-MB-231 [3]) [%],IC50 (MDA-MB-231 [3]) [nM],other results
"CC(C)(C)c1ccc(-c2cc(O)cc3c2[C@H]2CC[C@@]4(C)C(=O)CC[C@H]4[C@@H]2CC3)cc1 [14c, 3-hydroxy-1-(4-tert-butylphenyl)-13α-estra-1,3,5(10)-triene-17-one]",35.4,101,10600,20.2,99.6,12500,10600 to 20500,21.9,98.3,13000,16.1,98.3,13700,25.4,89.8,14400,< 10,91.3,20500,"inhibition at 100 µM (17β-HSD1; 100 µM test concentration, read-out: 17β-HSD1 Inhibition (% ± SD)): 77.6 ± 6.3%; IC50 (17β-HSD1; read-out: 17β-HSD1 calculated IC50 (95% CI)): 2700 nM"
"CCCCOC1(c2cc(=O)c3c(Oc4ccc(C(C)(C)C)cc4)cc(O)cc3o2)C=CC(=O)C=C1 [17c, 2-(1-Butoxy-4-oxocyclohexa-2,5-dienyl)-5-(4-tert-butylphenoxy)-7-hydroxy-chromen-4-one]",98.5,98.9,600,89.8,96.2,640,390 to 640,98,98,470,92.7,99,930,97.9,97.9,390,98.3,97,420,"times stronger activity than parent compound 10 ([1]; ratio of IC50 values, all investigated cell lines): 2.5–5 times; subG1 phase (HeLa cells [4]): substantial subG1 phase elevation; proportion of the cells at G2/M phase (HeLa cells [4]; concentration-dependent): significantly increases; number of mitochondrial membrane-disrupted cells (HeLa cells [5]; 1 and 2 µM, vs untreated controls): significantly increased; effect on mitochondrial membrane potential compared with reference agent CCCP (HeLa cells [5]; CCCP 10 µM): more substantial than that of the applied reference agent CCCP"
C[C@@]12CC[C@@H]3c4ccc(OCc5cn(Cc6ccccc6)nn5)cc4CC[C@H]3[C@@H]1CCC2=O [compound 5],,,,,,,,,,,,,,,,,,,,IC50 (cancer cell lines): 600 to 900 nM; IC50 (cytotoxic) (cancer cell lines): submicromolar
"O=C1C=CC(O)(c2cc(=O)c3c(O)cc(O)cc3o2)C=C1 [compound 9, Protoapigenone]",,,,,,,,,,,,,,,,,,,,IC50 (MDA-MB-231 [6]): 1350 nM

# Reference: paper PMC12278462, “Site-selective arylations of nature-inspired flavonoids or steroidal phenols via C—H or O—H activation” (Journal of Enzyme Inhibition and Medicinal Chemistry, 2025)
